Data from ChEMBL document CHEMBL1201862, “PubChem BioAssay data set” (2004).
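Briefly, cells in 96-well plates were exposed to five compound concentrations for 48 h, and endpoints were estimated by linear interpolation. Here, GI50 denotes the concentration required for 50% inhibition of growth.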 Active and inactive are the calls of the source. Rule as the data show it: active = GI50 up to about 1.1 µM and inactive = higher.

Assays:
Assay in all cases: NCI-60 cell line screen, 48 h
A498 = tested on: A498
A549 = tested on: A549
CCRF-CEM = tested on: CCRF-CEM
DLD-1 = tested on: DLD-1
HOP-92 = tested on: HOP-92
HT-29 = tested on: HT-29
IGROV-1 = tested on: IGROV-1
K562 = tested on: K562
KM-20L2 = tested on: KM-20L2
MOLT-4 = tested on: MOLT-4
NCI-H23 = tested on: NCI-H23
RPMI-8226 = tested on: RPMI-8226
SF-295 = tested on: SF-295
SK-MEL-2 = tested on: SK-MEL-2
SNB-19 = tested on: SNB-19
UACC-62 = tested on: UACC-62
UO-31 = tested on: UO-31

Structure (SMILES)	GI50 (A498)	GI50 (A549)	GI50 (CCRF-CEM)	GI50 (DLD-1)	GI50 (HOP-92)	GI50 (HT-29)	GI50 (IGROV-1)	GI50 (K562)	GI50 (KM-20L2)	GI50 (MOLT-4)	GI50 (NCI-H23)	GI50 (RPMI-8226)	GI50 (SF-295)	GI50 (SK-MEL-2)	GI50 (SNB-19)	GI50 (UACC-62)	GI50 (UO-31)
O=C(O)CCCNS(=O)(=O)c1ccccc1	> 100 µM (inactive)	> 100 µM (inactive)	> 100 µM (inactive)	> 100 µM (inactive)	> 100 µM (inactive)	> 100 µM (inactive)	> 100 µM (inactive)	> 100 µM (inactive)	> 100 µM (inactive)	> 100 µM (inactive)	> 100 µM (inactive)	> 100 µM (inactive)	> 100 µM (inactive)	> 100 µM (inactive)	> 100 µM (inactive)	> 100 µM (inactive)	> 100 µM (inactive)
CCOC(=O)C[C@@H](C)[C@]1(C(=O)OC)CCCC1=O	> 100 µM (inactive)	> 100 µM (inactive)	44.6 µM (inactive)	> 47.2 µM (inactive)	> 100 µM (inactive)	> 65.8 µM (inactive)	> 100 µM (inactive)	> 100 µM (inactive)	> 59.2 µM (inactive)	> 100 µM (inactive)	> 71.9 µM (inactive)	> 49.3 µM (inactive)	> 100 µM (inactive)	> 100 µM (inactive)	> 100 µM (inactive)	> 100 µM (inactive)	> 100 µM (inactive)
COC1OC2COC(c3ccccc3)OC2C(O)C1Br (centres undefined)	> 100 µM (inactive)	> 100 µM (inactive)	> 100 µM (inactive)	> 100 µM (inactive)	> 100 µM (inactive)	> 100 µM (inactive)	> 100 µM (inactive)	> 100 µM (inactive)	> 10 µM (inactive)	> 100 µM (inactive)	> 100 µM (inactive)	> 100 µM (inactive)	> 100 µM (inactive)		> 100 µM (inactive)	> 100 µM (inactive)	
CC(C)C(=S)N(C)O	19.1 µM (inactive)	12.4 µM (inactive)	0.502 µM (active)	2.73 µM (inactive)	47.8 µM (inactive)	1.46 µM (inactive)	> 62.5 µM (inactive)	0.42 µM (active)	14.5 µM (inactive)	0.809 µM (active)	29.8 µM (inactive)	0.518 µM (active)	16.8 µM (inactive)	24.5 µM (inactive)	> 29.2 µM (inactive)	10.1 µM (inactive)	9.64 µM (inactive)
O=C1c2ccccc2C(=O)N1C/C=C/CO	> 100 µM (inactive)	> 100 µM (inactive)	> 100 µM (inactive)	> 100 µM (inactive)			> 100 µM (inactive)	> 100 µM (inactive)	> 100 µM (inactive)	> 100 µM (inactive)		> 100 µM (inactive)		> 100 µM (inactive)	> 100 µM (inactive)	> 100 µM (inactive)	> 100 µM (inactive)
CC(=O)OC1COC(Nc2ccc(C(C)=O)cc2)C(OC(C)=O)C1OC(C)=O (centres undefined)	> 100 µM (inactive)	> 100 µM (inactive)	> 100 µM (inactive)	> 100 µM (inactive)	> 100 µM (inactive)	> 100 µM (inactive)	> 100 µM (inactive)	> 100 µM (inactive)	> 100 µM (inactive)	> 100 µM (inactive)	> 100 µM (inactive)	> 100 µM (inactive)	> 100 µM (inactive)	> 100 µM (inactive)	> 100 µM (inactive)	> 100 µM (inactive)	> 100 µM (inactive)
CCOC(=O)C1=C(OC(OCC)C(CC)[Se]c2ccccc2)CCCC1 (centres undefined)	> 100 µM (inactive)	45.3 µM (inactive)	11.4 µM (inactive)	17.5 µM (inactive)	21.2 µM (inactive)	24.7 µM (inactive)	26.8 µM (inactive)	34.2 µM (inactive)	19.8 µM (inactive)	14.7 µM (inactive)	10.9 µM (inactive)	13 µM (inactive)	19.1 µM (inactive)	8.32 µM (inactive)	40.6 µM (inactive)	19.8 µM (inactive)	35.3 µM (inactive)
C=C(C=O)CCCC(C)[C@@H]1CCC23CC12CCC1[C@@]2(C)CCC(OC(C)=O)C(C)(C)C2CC(OC2OC(COC(C)=O)C(O)C(O)C2O)[C@]13C (some centres undefined)	6.85 µM (inactive)	6.34 µM (inactive)	1.03 µM (active)		6.22 µM (inactive)	5.43 µM (inactive)	2.15 µM (inactive)	1.44 µM (inactive)	6.5 µM (inactive)	0.861 µM (active)	7.82 µM (inactive)	0.859 µM (active)	5.83 µM (inactive)	7.4 µM (inactive)	7.1 µM (inactive)	1.08 µM (active)	5.42 µM (inactive)
